# Laboratory results reported in US8574563B2 (Bristol-Myers Squibb Company, priority 2006, dated 2013).
# Like-named read-outs stand apart in the source and are kept apart here.
# Tested on: HCV 1b-377-neo replicon cells
# Experiment: HCV replicon assay, HCV 1b-377-neo replicon cells (1b FRET)
# Format: cell-based, Hepatitis C virus genotype 1b
# Settings: HCV 1b-377-neo replicon cells, HCV 1b genotype, read-out: EC50 range against HCV 1b (Table 2, Range)
# How it was run: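 Compounds tested in HCV genotype 1b-377-neo replicon cells with a FRET read-out. Cells resistant to a reference NS5A inhibitor through a Y2065H NS5A mutation were run alongside wild-type cells.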
smiles,measurement,setting,value
"COC(=O)N[C@H](C(=O)N1CCC[C@H]1c1ncc(-c2ccc(-c3ccc(-c4cnc([C@@H]5CCCN5C(=O)[C@@H](Nc5ccncn5)C(C)C)[nH]4)cc3)cc2)[nH]1)C(C)C [cj-15d, methyl ((1S)-2-methyl-1-(((2S)-2-(5-(4′-(2-((2S)-1-(N-4-pyrimidinyl-L-valyl)-2-pyrrolidinyl)-1H-imidazol-5-yl)-4-biphenylyl)-1H-imidazol-2-yl)-1-pyrrolidinyl)carbonyl)propyl)carbamate]",EC50,Hepatitis C virus,1 to 999 pM
"CN1CCN(C(C(=O)N2CCC[C@H]2c2ncc(-c3ccc(-c4ccc(-c5c[nH]c([C@@H]6CCCN6C(=O)[C@H]6CCCO6)n5)cc4)cc3)[nH]2)c2ccccc2)CC1 (stereo partly drawn) [Example 103-4, 1-methyl-4-(2-oxo-1-phenyl-2-((2S)-2-(5-(4′-(2-((2S)-1-((2R)-tetrahydro-2-furanylcarbonyl)-2-pyrrolidinyl)-1H-imidazol-4-yl)-4-biphenylyl)-1H-imidazol-2-yl)-1-pyrrolidinyl)ethyl)piperazine]",EC50,,1 to 999 pM
"C[C@@H](c1ncc(-c2ccc(-c3ccc(-c4cnc([C@H](C)N(C)C(=O)[C@@H](c5ccccc5)N5CCCCC5)[nH]4)cc3)cc2)[nH]1)N(C)C(=O)[C@@H](c1ccccc1)N1CCCCC1 [Example 24-18-3, (2R,2′R)-N,N′-(4,4′-biphenyldiylbis(1H-imidazole-5,2-diyl(1S)-1,1-ethanediyl))bis(N-methyl-2-phenyl-2-(1-piperidinyl)acetamide)]",EC50,Hepatitis C virus,1 to 999 pM
"CCCN(CCC)[C@H](C)C(=O)N1CCC[C@H]1c1ncc(-c2ccc(-c3ccc(-c4cnc([C@@H]5CCCN5C(=O)[C@H](C)NC(=O)OC)[nH]4)cc3)cc2)[nH]1 [Example M102, methyl ((1S)-2-((2S)-2-(5-(4′-(2-((2S)-1-(N,N-dipropyl-D-alanyl)-2-pyrrolidinyl)-1H-imidazol-5-yl)-4-biphenylyl)-1H-imidazol-2-yl)-1-pyrrolidinyl)-1-methyl-2-oxoethyl)carbamate]",EC50,Hepatitis C virus,1000 to 99000 pM
"CCN(CC)[C@H](COC)C(=O)N1CCC[C@H]1c1ncc(-c2ccc(-c3ccc(-c4cnc([C@@H]5CCCN5C(=O)[C@@H](NC(=O)OC)C(C)C)[nH]4)cc3)cc2)[nH]1 [Example M91, methyl ((1S)-1-(((2S)-2-(5-(4′-(2-((2S)-1-(N,N-diethyl-O-methyl-D-seryl)-2-pyrrolidinyl)-1H-imidazol-5-yl)-4-biphenylyl)-1H-imidazol-2-yl)-1-pyrrolidinyl)carbonyl)-2-methylpropyl)carbamate]",EC50,Hepatitis C virus,1000 to 99000 pM
"COC(=O)N[C@@H](Cc1ccncc1)C(=O)N1CCC[C@H]1c1ncc(-c2ccc(-c3ccc(-c4cnc([C@@H]5CCCN5C(=O)[C@@H](NC(=O)OC)C(C)C)[nH]4)cc3)cc2)[nH]1 [cj-88, methyl ((1S)-2-((2S)-2-(5-(4′-(2-((2S)-1-((2S)-2-((methoxycarbonyl)amino)-3-methylbutanoyl)-2-pyrrolidinyl)-1H-imidazol-5-yl)-4-biphenylyl)-1H-imidazol-2-yl)-1-pyrrolidinyl)-2-oxo-1-(4-pyridinylmethyl)ethyl)carbamate]",EC50,Hepatitis C virus,1 to 999 pM
"CC[C@@H](C(=O)N1CCC[C@H]1c1ncc(-c2ccc(-c3ccc(-c4cnc([C@@H]5CCCN5C(=O)[C@@H](NC(=O)OC)C(C)C)[nH]4)cc3)cc2)[nH]1)N(CC)CC [Example M86, methyl ((1S)-1-(((2S)-2-(5-(4′-(2-((2S)-1-((2S)-2-(diethylamino)butanoyl)-2-pyrrolidinyl)-1H-imidazol-5-yl)-4-biphenylyl)-1H-imidazol-2-yl)-1-pyrrolidinyl)carbonyl)-2-methylpropyl)carbamate]",EC50,Hepatitis C virus,1000 to 99000 pM
"COC(=O)N[C@@H](C(=O)N1CCC[C@H]1c1ncc(-c2ccc(-c3ccc(-c4cnc([C@@H]5CCCN5C(=O)[C@H](OC)c5ccccc5)[nH]4)cc3)cc2)[nH]1)c1ccccc1 [Example 84-80, methyl ((1R)-2-((2S)-2-(5-(4′-(2-((2S)-1-((2R)-2-methoxy-2-phenylacetyl)-2-pyrrolidinyl)-1H-imidazol-5-yl)-4-biphenylyl)-1H-imdiazol-2-yl)-1-pyrrolidinyl)-2-oxo-1-phenylethyl)carbamate]",EC50,,1 to 999 pM
"COC(=O)N[C@H](C(=O)N1CCC[C@H]1c1ncc(-c2ccc(-c3ccc(-c4cnc([C@@H]5CCCN5C(=O)[C@@H](NC5=NCCS5)C(C)C)[nH]4)cc3)cc2)[nH]1)C(C)C [cj-15c, methyl ((1S)-1-(((2S)-2-(5-(4′-(2-((2S)-1-(N-(4,5-dihydro-1,3-thiazol-2-yl)-L-valyl)-2-pyrrolidinyl)-1H-imidazol-5-yl)-4-biphenylyl)-1H-imidazol-2-yl)-1-pyrrolidinyl)carbonyl)-2-methylpropyl)carbamate]",EC50,Hepatitis C virus,1 to 999 pM
"COC(=O)N[C@@H](Cc1cncn1C)C(=O)N1CCC[C@H]1c1ncc(-c2ccc(-c3ccc(-c4cnc([C@@H]5CCCN5C(=O)[C@@H](NC(=O)OC)C(C)C)[nH]4)cc3)cc2)[nH]1 [cj-46, methyl ((1S)-1-(((2S)-2-(5-(4′-(2-((2S)-1-((2S)-2-((methoxycarbonyl)amino)-3-(1-methyl-1H-imidazol-5-yl)propanoyl)-2-pyrrolidinyl)-1H-imidazol-5-yl)-4-biphenylyl)-1H-imidazol-2-yl)-1-pyrrolidinyl)carbonyl)-2-methylpropyl)carbamate]",EC50,Hepatitis C virus,1 to 999 pM
"COC(=O)NCC(=O)N1[C@@H]2C[C@@H]2C[C@H]1c1nc(-c2ccc(-c3ccc(-c4c[nH]c([C@@H]5C[C@H]6C[C@H]6N5C(=O)CNC(=O)OC)n4)cc3)cc2)c[nH]1 [Example M134, methyl (2-((1R,3S,5R)-3-(4-(4′-(2-((1R,3S,5R)-2-(((methoxy-carbonyl)amino)acetyl)-2-azabicyclo[3.1.0]hex-3-yl)-1H-imidazol-4-yl)-4-biphenylyl)-1H-imidazol-2-yl)-2-azabicyclo[3.1.0]hex-2-yl)-2-oxoethyl)carbamate]",EC50,Hepatitis C virus,1000 to 99000 pM
"COC(=O)N[C@@H](Cc1ccccn1)C(=O)N1CCC[C@H]1c1ncc(-c2ccc(-c3ccc(-c4cnc([C@@H]5CCCN5C(=O)[C@H](Cc5ccccn5)NC(=O)OC)[nH]4)cc3)cc2)[nH]1 [cj-130, methyl ((1S)-2-((2S)-2-(5-(4′-(2-((2S)-1-((2S)-2-((methoxycarbonyl)amino)-3-(2-pyridinyl)propanoyl)-2-pyrrolidinyl)-1H-imidazol-5-yl)-4-biphenylyl)-1H-imidazol-2-yl)-1-pyrrolidinyl)-2-oxo-1-(2-pyridinylmethyl)ethyl)carbamate]",EC50,Hepatitis C virus,1 to 999 pM
"CCN(CC)[C@@H](C(=O)N1CCC[C@H]1c1ncc(-c2ccc(-c3ccc(-c4cnc([C@@H]5CCCN5C(=O)C[C@H](Cc5cccs5)NC(=O)OC)[nH]4)cc3)cc2)[nH]1)c1ccccc1 [cj-54, methyl ((1R)-3-((2S)-2-(5-(4′-(2-((2S)-1-((2R)-2-(diethylamino)-2-phenylacetyl)-2-pyrrolidinyl)-1H-imidazol-5-yl)-4-biphenylyl)-1H-imidazol-2-yl)-1-pyrrolidinyl)-3-oxo-1-(2-thienylmethyl)propyl)carbamate]",EC50,Hepatitis C virus,1 to 999 pM
"CC(=O)N[C@H](C(=O)N1CCC[C@H]1c1nc(-c2ccc(-c3ccc(-c4c[nH]c([C@@H]5CCCN5C(=O)[C@@H](NC(C)=O)C(C)C)n4)cc3)cc2)c[nH]1)C(C)C [Example F60, N-((1S)-1-(((2S)-2-(4-(4′-(2-((2S)-1-((2S)-2-acetamido-3-methylbutanoyl)-2-pyrrolidinyl)-1H-imidazol-4-yl)-4-biphenylyl)-1H-imidazol-2-yl)-1-pyrrolidinyl)carbonyl)-2-methylpropyl)acetamide]",EC50,Hepatitis C virus,1 to 999 pM
"COC(=O)N[C@H](C(=O)N1C[C@H](F)C[C@H]1c1ncc(-c2ccc(-c3ccc(-c4cnc([C@@H]5C[C@@H](F)CN5C(=O)[C@@H](NC(=O)OC)C(C)C)[nH]4)cc3)cc2)[nH]1)C(C)C [JG-16, methyl ((1S)-1-(((2S,4R)-4-fluoro-2-(5-(4′-(2-((2S,4R)-4-fluoro-1-((2S)-2-((methoxycarbonyl)amino)-3-methylbutanoyl)-2-pyrrolidinyl)-1H-imidazol-5-yl)-4-biphenylyl)-1H-imidazol-2-yl)-1-pyrrolidinyl)carbonyl)-2-methylpropyl)carbamate]",EC50,Hepatitis C virus,1 to 999 pM
"CCN(CC)[C@@H](C(=O)N1CCC[C@H]1c1ncc(-c2ccc(-c3ccc(-c4cnc([C@@H]5CCCN5C(=O)C[C@@H](Cc5cccs5)NC(=O)OC)[nH]4)cc3)cc2)[nH]1)c1ccccc1 [cj-56, methyl ((1S)-3-((2S)-2-(5-(4′-(2-((2S)-1-((2R)-2-(diethylamino)-2-phenylacetyl)-2-pyrrolidinyl)-1H-imidazol-5-yl)-4-biphenylyl)-1H-imidazol-2-yl)-1-pyrrolidinyl)-3-oxo-1-(2-thienylmethyl)propyl)carbamate]",EC50,Hepatitis C virus,1 to 999 pM
"CCN(CC)[C@@H](C(=O)N1CCC[C@H]1c1ncc(-c2ccc(-c3ccc(-c4cnc([C@@H]5CCCN5C(=O)[C@H](Cc5cncn5C)NC(=O)OC)[nH]4)cc3)cc2)[nH]1)c1ccccc1 [cj-44, methyl ((1S)-2-((2S)-2-(5-(4′-(2-((2S)-1-((2R)-2-(diethylamino)-2-phenylacetyl)-2-pyrrolidinyl)-1H-imidazol-5-yl)-4-biphenylyl)-1H-imidazol-2-yl)-1-pyrrolidinyl)-1-((1-methyl-1H-imidazol-5-yl)methyl)-2-oxoethyl)carbamate]",EC50,Hepatitis C virus,1 to 999 pM
"CC[C@H](NC(=O)OC)C(=O)N1CCC[C@H]1c1ncc(-c2ccc(-c3ccc(-c4cnc([C@@H]5CCCN5C(=O)[C@@H](NC(=O)OC)C(C)C)[nH]4)cc3)cc2)[nH]1 [Example M74, methyl ((1S)-1-(((2S)-2-(5-(4′-(2-((2S)-1-((2S)-2-((methoxycarbonyl)amino)butanoyl)-2-pyrrolidinyl)-1H-imidazol-5-yl)-4-biphenylyl)-1H-imidazol-2-yl)-1-pyrrolidinyl)carbonyl)-2-methylpropyl)carbamate]",EC50,Hepatitis C virus,1000 to 99000 pM
"CN(C)[C@@H](C(=O)N1CCC[C@H]1c1ncc(-c2ccc(-c3ccc(-c4cnc([C@@H]5CCCN5C(=O)Cc5cccc(O)c5)[nH]4)cc3)cc2)[nH]1)c1ccccc1 [Example 94-13, 3-(2-((2S)-2-(5-(4′-(2-((2S)-1-((2R)-2-(dimethylamino)-2-phenylacetyl)-2-pyrrolidinyl)-1H-imidazol-5-yl)-4-biphenylyl)-1H-imidazol-2-yl)-1-pyrrolidinyl)-2-oxoethyl)phenol]",EC50,Hepatitis C virus,1 to 999 pM
